The test system of one experiment is Abeta 40. The experiment can be described thus: In vivo inhibition of beta-secretase: percent Abeta 40 reduction in CSF and brain. To be noted: after 4 hrs; for inhibition in vivo at 10 mg/kg: 10 mpk. Further details: species or system rat. The text has this:
In Vivo Inhibition of Beta-Secretase
Several animal models, including mouse, rat, dog, and monkey, may be used to screen for inhibition of beta-secretase activity in vivo following administration of a test compound sample. Animals used in this invention can be wild type, transgenic, or gene knockout animals. For example, the Tg2576 mouse model, prepared and conducted as described in Hsiao et al., 1996, Science 274, 99-102, and other non-transgenic or gene knockout animals are useful to analyze in vivo inhibition of Amyloid beta peptide (Abeta) production in the presence of inhibitory test compounds. Generally, 2 to 18 month old Tg2576 mice, gene knockout mice or non-transgenic animals are administered test compounds formulated in vehicles, such as cyclodextran, phosphate buffers, hydroxypropyl methylcellulose or other suitable vehicles. One to twenty-four hours following the administration of compound, animals are sacrificed, and brains as well as cerebrospinal fluid (CSF) and plasma are removed for analysis of A-beta levels and drug or test compound concentrations (Dovey et al., 2001, Journal of Neurochemistry, 76, 173-181) Beginning at time 0, animals are administered by oral gavage, or other means of delivery such as intravenous injection, an inhibitory test compound of up to 100 mg/kg in a standard, conventional formulation, such as 2% hydroxypropyl methylcellulose, 1% Tween80. A separate group of animals receive 2% hydroxypropyl methylcellulose, 1% Tween80 alone, containing no test compound, and serve as a vehicle-control group. At the end of the test period, animals are sacrificed and brain tissues, plasma or cerebrospinal fluid are collected. Brains are either homogenized in 10 volumes (w/v) of 0.2% diethylamine (DEA) in 50 mM NaCl (Best et al., 2005, Journal of Pharmacology and Experimental Therapeutics, 313, 902-908), or in 10 volumes of 0.5% TritonX-100 in Tris-buffered saline (pH at about 7.6). Homogenates are centrifuged at 355,000 g, 4° C. for 30 minutes. CSF or brain supernatants are then analyzed for the presence of A-beta peptide by specific sandwich ELISA assays based on ECL (Electrochemiluminescence) technology. For example, rat Abeta40 is measured using biotinylated-4G8 (Signet) as a capture antibody and Fab40 (an in-house antibody specific to the C-terminal of Abeta40) as a detection antibody. For example, 4 hours after administration of 30 mg/kg oral dose of the test compound in 2% hydroxypropyl methylcellulose, 1% Tween80 (pH2.2) to 200 g male Sprague Dawley rats, amyloid beta peptide levels are measured for reduction by X % and Y % in cerebrospinal fluid and brain, respectively, when compared to the levels measured in the vehicle-treated or control […].
Actual vehicles used: Oral: 2% HPMC, 1% Tween80, pH 2.2
• IV: 5% EtOH, 45% Propylene glycol in 5% Dextrose
The compounds of the invention may be shown to reduce the formation and/or deposition of amyloid beta peptide in the cerebrospinal fluid (CSF) as well as in the brain of a mouse or rat at either 3 mpk, 10 mpk or 30 mpk (mpk=mg compound per kg weight of the animal) dosing concentrations after 4 hrs.

Another experiment concerns the target T1, human Bace2 protein (Homo sapiens, UniProt Q9Y5Z0).
T1 construct: V5 (C); 6-His (C)
T1 sequence (Q9Y5Z0 63-518): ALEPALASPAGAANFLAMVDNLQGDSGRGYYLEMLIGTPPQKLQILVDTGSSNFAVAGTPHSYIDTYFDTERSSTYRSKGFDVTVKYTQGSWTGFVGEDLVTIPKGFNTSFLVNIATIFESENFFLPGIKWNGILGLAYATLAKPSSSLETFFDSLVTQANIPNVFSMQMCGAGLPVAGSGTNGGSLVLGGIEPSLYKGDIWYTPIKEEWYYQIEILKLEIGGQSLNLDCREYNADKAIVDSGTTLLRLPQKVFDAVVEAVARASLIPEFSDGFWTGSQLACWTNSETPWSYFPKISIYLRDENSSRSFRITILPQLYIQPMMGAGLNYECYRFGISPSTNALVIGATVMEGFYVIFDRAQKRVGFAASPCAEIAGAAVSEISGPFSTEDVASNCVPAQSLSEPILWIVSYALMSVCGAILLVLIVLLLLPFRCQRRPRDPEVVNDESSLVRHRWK
The experiment can be described thus: In vitro enzymatic BACE2 FRET assay. The format is biochemical. To be noted: average IC50; read-out: BACE2 Enzyme assay IC50. Put shortly: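 Human Bace2 with C-terminal V5/6-His tag (0.2 nM) pre-incubated 1 h with inhibitor in 0.05 M acetate pH 4.2, 10% DMSO, 100 uM genapol; reaction started with 50 nM FRET peptide substrate, run 1 h. Stopped with Tris to neutral pH; fluorescence increase from substrate cleavage measured.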

Setting [1] is: Abeta 40, rat CSF, read-out: % reduction of rat CSF levels at 10 pmk.
[2] abbreviates: Abeta 40, rat brain, read-out: % reduction of rat brain levels at 10 mpk.

By IC50 is commonly meant the concentration that inhibits the measured activity by half.

Read-outs that look alike come from different tables or passages of the source.

For the compound `COc1cnc(C(=O)Nc2ccc(F)c([C@@]3(C)N=C(N)[C@@]4(CF)CC[C@@H]3S4(=O)=O)c2)c(C)c1` [Example 42, N-(3-((1S,2R,5R)-4-amino-5-(fluoromethyl)-2-methyl-8,8-dioxido-8-thia-3-azabicyclo[3.2.1]oct-3-en-2-yl)-4-fluorophenyl)-5-methoxy-3-methyl-2-pyridinecarboxamide], in the experiment with Abeta 40 (Abeta 40, rat CSF, 3 mpk), the “% reduction of rat CSF levels (3 mpk)” value is 21 (3 mpk) %. In addition, the “% reduction of rat brain levels (3 mpk)” value in the experiment on Abeta 40 (Abeta 40, rat brain, 3 mpk) is recorded as 0 (3 mpk) %. In addition, the 50% inhibitory concentration (IC50) on human Bace2 protein came to 3 nM.
Take `C[C@]1(c2cc(Nc3nccc4nc(OCc5ncco5)cnc34)ccc2F)N=C(N)[C@@]2(C)CC[C@@H]1S2(=O)=O` [Example 140, N-(3-((1S,2R,5R)-4-amino-2,5-dimethyl-8,8-dioxido-8-thia-3-azabicyclo[3.2.1]oct-3-en-2-yl)-4-fluorophenyl)-2-(1,3-oxazol-2-ylmethoxy)pyrido[3,4-b]pyrazin-5-amine]: the inhibition in vivo at 10 mg/kg in the experiment with Abeta 40 (setting [1]) was found to be 41%; in the experiment with Abeta 40 (setting [2]), 39%. Also, the IC50 on human Bace2 protein was found to be 20 nM.
The like results for `COc1cnc2c(Nc3ccc(F)c([C@@]4(C)N=C(N)[C@@]5(C)CC[C@@H]4S5(=O)=O)c3)nccc2n1` [Example 80, N-(3-((1S,2R,5R)-4-amino-2,5-dimethyl-8,8-dioxido-8-thia-3-azabicyclo[3.2.1]oct-3-en-2-yl)-4-fluorophenyl)-2-methoxypyrido[3,4-b]pyrazin-5-amine] were, in that order, 72%, 63% and 15 nM.
In the case of `COc1cnc(C(=O)Nc2ccc(F)c([C@@]3(C)N=C(N)[C@@]4(CF)CC[C@@H]3S4(=O)=O)c2)c(C)n1` [Example 76, N-(3-((1S,2R,5R)-4-amino-5-(fluoromethyl)-2-methyl-8,8-dioxido-8-thia-3-azabicyclo[3.2.1]oct-3-en-2-yl)-4-fluorophenyl)-5-methoxy-3-methyl-2-pyrazinecarboxamide], the inhibition in vivo at 10 mg/kg in the experiment on Abeta 40 (setting [1]) was determined as 76%; in the experiment with Abeta 40 (setting [2]) it was 66%. The concentration for half-maximal inhibition (IC50) on human Bace2 protein stood at 4 nM.
The like results for `C[C@]1(c2cc(NC(=O)c3ccc(Cl)cn3)ccc2F)N=C(N)[C@@]2(CF)CC[C@@H]1S2(=O)=O` [Example 77, N-(3-((1S,2R,5R)-4-amino-5-(fluoromethyl)-2-methyl-8,8-dioxido-8-thia-3-azabicyclo[3.2.1]oct-3-en-2-yl)-4-fluorophenyl)-5-chloro-2-pyridinecarboxamide] were, in that order, 77%, 67% and 1 nM.
For `C[C@]1(c2cc(Nc3nccc4nc(OCc5ncco5)cnc34)ccc2F)N=C(N)[C@@]2(CF)CC[C@@H]1S2(=O)=O` [Example 104, N-(3-((1S,2R,5R)-4-amino-5-(fluoromethyl)-2-methyl-8,8-dioxido-8-thia-3-azabicyclo[3.2.1]oct-3-en-2-yl)-4-fluorophenyl)-2-(1,3-oxazol-2-ylmethoxy)pyrido[3,4-b]pyrazin-5-amine] the same measures were 74%, 71% and 3 nM.
For `C#CCOc1cnc(C(=O)Nc2ccc(F)c([C@@]3(C)N=C(N)[C@@]4(CF)CC[C@@H]3S4(=O)=O)c2)c(C)n1` [Example 59, N-(3-((1S,2R,5R)-4-amino-5-(fluoromethyl)-2-methyl-8,8-dioxido-8-thia-3-azabicyclo[3.2.1]oct-3-en-2-yl)-4-fluorophenyl)-3-methyl-5-(2-propyn-1-yloxy)-2-pyrazinecarboxamide] the same measures were 80%, 76% and 3 nM.
Regarding `COc1cnc2c(Nc3ccc(F)c([C@@]4(C)N=C(N)[C@@]5(C)CC[C@@H]4S5(=O)=O)c3)ncnc2c1` [Example 132, N-(3-((1S,2R,5R)-4-amino-2,5-dimethyl-8,8-dioxido-8-thia-3-azabicyclo[3.2.1]oct-3-en-2-yl)-4-fluorophenyl)-7-methoxypyrido[3,2-d]pyrimidin-4-amine], the inhibition in vivo at 10 mg/kg with Abeta 40 (setting [1]) was determined as 70%; in the experiment on Abeta 40 (setting [2]) it was 50%. In addition, the IC50 at human Bace2 protein stood at 51 nM.
For the compound `COc1cnc2c(Nc3ccc(F)c([C@@]4(C)N=C(N)[C@@]5(CF)CC[C@@H]4S5(=O)=O)c3)nccc2c1` [Example 56, N-(3-((1S,2R,5R)-4-amino-5-(fluoromethyl)-2-methyl-8,8-dioxido-8-thia-3-azabicyclo[3.2.1]oct-3-en-2-yl)-4-fluorophenyl)-3-methoxy-1,7-naphthyridin-8-amine], in the experiment with Abeta 40 (setting [1]), the inhibition in vivo at 10 mg/kg was 69%. In addition, the IC50 at human Bace2 protein worked out at 18.5 nM.
For the compound `COc1cnc2c(Nc3ccc(F)c([C@@]4(C)N=C(N)[C@@]5(CF)CC[C@@H]4S5(=O)=O)c3)ncnc2c1` [Example 97, N-(3-((1S,2R,5R)-4-amino-5-(fluoromethyl)-2-methyl-8,8-dioxido-8-thia-3-azabicyclo[3.2.1]oct-3-en-2-yl)-4-fluorophenyl)-7-methoxypyrido[3,2-d]pyrimidin-4-amine], the inhibition in vivo at 10 mg/kg is 75% in the experiment on Abeta 40 (setting [1]) and 76% with Abeta 40 (setting [2]). For the same compound, the IC50 on human Bace2 protein turned out to be 20 nM.
The like results for `CC#CCOc1cnc(C(=O)Nc2ccc(F)c([C@@]3(C)N=C(N)[C@@]4(C)CC[C@@H]3S4(=O)=O)c2)cn1` [Example 82, N-(3-((1S,2R,5R)-4-amino-2,5-dimethyl-8,8-dioxido-8-thia-3-azabicyclo[3.2.1]oct-3-en-2-yl)-4-fluorophenyl)-5-(2-butyn-1-yloxy)-2-pyrazinecarboxamide] were, in that order, 71%, 56% and 3 nM.
For `Cc1cc(Cl)cnc1C(=O)Nc1ccc(F)c([C@@]2(C)N=C(N)[C@@]3(CF)CC[C@@H]2S3(=O)=O)c1` [Example 88, N-(3-((1S,2R,5R)-4-amino-5-(fluoromethyl)-2-methyl-8,8-dioxido-8-thia-3-azabicyclo[3.2.1]oct-3-en-2-yl)-4-fluorophenyl)-5-chloro-3-methyl-2-pyridinecarboxamide] the same measures were 77%, 70% and 0.8 nM.
`C[C@]1(c2cc(Nc3ncnc4cc(C(F)(F)F)cnc34)ccc2F)N=C(N)[C@@]2(C)CC[C@@H]1S2(=O)=O` [Example 106, N-(3-((1S,2R,5R)-4-amino-2,5-dimethyl-8,8-dioxido-8-thia-3-azabicyclo[3.2.1]oct-3-en-2-yl)-4-fluorophenyl)-7-(trifluoromethyl)pyrido[3,2-d]pyrimidin-4-amine]: the inhibition in vivo at 10 mg/kg amounted to 59% in the experiment with Abeta 40 (setting [1]) and 29% in the experiment on Abeta 40 (setting [2]). Moreover, the IC50 at human Bace2 protein is 67 nM.
